Test results taken from patent US7655784B2, “Trans-sialidases obtained from Trypanosoma congolense” (N.V. Nutricia, priority 2002, dated 2010).

Tests used:
trans-sialidase TS1 = test: Trans-sialidase transfer activity of TS1 in the presence of salts, metal ions and putative inhibitors; assay type: biochemical, Trypanosoma congolense; conditions: for Salt effect: reduction of enzyme activity: 1M salt, de-salting produces enzyme activity again; for Effect of putative inhibitors: 10 mM
Method: (§1) In order to determine the transfer activity of the trans-sialidase, 25 μl enzyme solution in 50 mM BisTris buffer, pH7.0, are incubated together with 1 mM NeufAc-α(2-3) lactose as a donor and 0.5 mM 4-methylumbelliferyl galactoside as an acceptor in a final volume of 50 μl at 37° C. for 2 hrs. The incubation is halted by adding 1 ml ice cold water. The reaction batch is then introduced to columns previously filled with 0.3 ml Q Sepharose FF (acetate form) and pre-equilibrated with water. After having washed out the acceptor with water and having discarded the dead volume (200 μl 1N HCl), the sialated product is eluated with 1N HCl (700 μl). Following acid hydrolysis of the product at 95° C. for 45 mins and cooling on ice, the probe is neutralised with 250-290 μl 2 N NaOH and 300 μl 1M glycin/NaOH buffer pH 10.0. The fluorescence of the released methylumbelliferone is measured in black 96 well plates (Microfluor, Dynex, U.S.A.) with a stimulation wave length of 365 nm and an emission wave length of 450 nm. The activity of the enzyme corresponds to the intensity of the fluorescence measured and can be read off on a previously established calibration curve (method in accordance with Engstler et al. 1992).

trans-sialidase TS2 = test: Trans-sialidase transfer activity of TS2 in the presence of salts, metal ions and putative inhibitors; assay type: biochemical, Trypanosoma congolense; conditions: for Salt effect: reduction of enzyme activity: 1M salt, de-salting produces enzyme activity again; for Effect of putative inhibitors: 10 mM
Method: as §1

Question: For `[Cu+2]` [Cu^2+], which “Effect of metal ions” value (trans-sialidase TS1; 5 mM) is on record?
Answer: Its value is “Cu^2+, Zn^2+, Fe^2+, Co^2+: little effect”.

Question: What about the “Effect of metal ions” value (trans-sialidase TS2; 5 mM) of the same molecule?
Answer: Its value is “Cu^2+, Zn^2+, Fe^2+, Co^2+: little effect”.

Question: What does the source list for `[Zn+2]` [Zn^2+]?
Answer: Effect of metal ions (trans-sialidase TS1; 5 mM): Cu^2+, Zn^2+, Fe^2+, Co^2+: little effect; Effect of metal ions (trans-sialidase TS2; 5 mM): Cu^2+, Zn^2+, Fe^2+, Co^2+: little effect

Question: How did the “Effect of metal ions” value (trans-sialidase TS1; 20 mM) turn out when `[Mg+2]` [Mg^2+] was run?
Answer: The value was 20 mM Ca^2+, Mg^2+, Mn^2+: no effect 5 mM.

Question: What about the “Effect of metal ions” value (trans-sialidase TS2; 20 mM) of the same molecule?
Answer: The value was 20 mM Ca^2+, Mg^2+, Mn^2+: no effect 5 mM.

Question: What does the source list for `[Cl-].[Na+]` [NaCl]?
Answer: Salt effect: reduction of enzyme activity (trans-sialidase TS1): enzymes by 50%, de-salting produces enzyme; Salt effect: reduction of enzyme activity (trans-sialidase TS2): enzymes by 50%, de-salting produces enzyme

Question: How did the “Effect of metal ions” value (trans-sialidase TS1; 5 mM) turn out when `[Co+2]` [Co^2+] was run?
Answer: The value was “Cu^2+, Zn^2+, Fe^2+, Co^2+: little effect”.

Question: And the “Effect of metal ions” value (trans-sialidase TS2; 5 mM)?
Answer: The value was “Cu^2+, Zn^2+, Fe^2+, Co^2+: little effect”.

Question: Which “Salt effect: reduction of enzyme activity” value (trans-sialidase TS1) does the source give for `[Cl-].[K+]` [KCl] here?
Answer: Its value is “enzymes by 50%, de-salting produces enzyme”.

Question: And the “Salt effect: reduction of enzyme activity” value (trans-sialidase TS2)?
Answer: Its value is “enzymes by 50%, de-salting produces enzyme”.

Question: How did the “Effect of putative inhibitors” value (trans-sialidase TS1) turn out when `O=C(O)C(=O)Nc1ccc([N+](=O)[O-])cc1` [N-(4-nitrophenyl)oxamic acid, reference compound] was run?
Answer: The value was 10 mM N-(4-nitrophenyl)oxamic acid: little.

Question: And the “Effect of putative inhibitors” value (trans-sialidase TS2)?
Answer: Its value is 10 mM N-(4-nitrophenyl)oxamic acid: little.

Question: `[Ca+2]` [Ca^2+] was tested. Which “Effect of metal ions” value (trans-sialidase TS1; 20 mM) did it give?
Answer: The value was 20 mM Ca^2+, Mg^2+, Mn^2+: no effect 5 mM.

Question: And the “Effect of metal ions” value (trans-sialidase TS2; 20 mM)?
Answer: The value was 20 mM Ca^2+, Mg^2+, Mn^2+: no effect 5 mM.

Question: What does the source list for `CC(=O)N[C@H]1[C@H]([C@H](O)[C@H](O)CO)OC(C(=O)O)=C[C@@H]1O` [N-acetyl-2,3-didehydro-2-deoxyneuraminic acid, reference compound]?
Answer: Effect of putative inhibitors (trans-sialidase TS1): acid: little inhibition.; Effect of putative inhibitors (trans-sialidase TS2): acid: little inhibition.

Question: For `[Mn+2]` [Mn^2+], which “Effect of metal ions” value (trans-sialidase TS1; 20 mM) is on record?
Answer: Its value is 20 mM Ca^2+, Mg^2+, Mn^2+: no effect 5 mM.

Question: What about the “Effect of metal ions” value (trans-sialidase TS2; 20 mM) of the same molecule?
Answer: The value was 20 mM Ca^2+, Mg^2+, Mn^2+: no effect 5 mM.

Question: Which results are given for `[Fe+2]` [Fe^2+]?
Answer: Effect of metal ions (trans-sialidase TS1; 5 mM): Cu^2+, Zn^2+, Fe^2+, Co^2+: little effect; Effect of metal ions (trans-sialidase TS2; 5 mM): Cu^2+, Zn^2+, Fe^2+, Co^2+: little effect
